Reference: article PMC9940649, “Phytochemical Comparison of Medicinal Cannabis Extracts and Study of Their CYP-Mediated Interactions with Coumarinic Oral Anticoagulants” (Medical Cannabis and Cannabinoids, 2023)
Read-outs that look alike come from different tables or passages of the source.

What was measured:
[1] = at 0.5 mg/mL protein concentration; cited from earlier work
[2] = molecular target: T1, CYP2C9 (Homo sapiens, UniProt P11712); assay: in vitro; details: both, microsomes, pH 7.4
Description: (§1) Briefly, 96-well incubation plates were prepared by adding inhibitors, substrates, and extracts (all dissolved in ethanol) to the respective wells. The 96-well plates were then placed on a thermoshaker (37°C, 500 rpm) until full evaporation of the solvent. […] HLM were thawed on ice, diluted in 100 mM phosphate buffer (pH 7.4) (final concentration 0.2 mg/mL), and added to the incubation plate that was prepared with the inhibitors and substrates. For preincubation, the plates were shaken at 500 rpm on an orbital shaker for 15 min at 37°C. […] The formation of hydroxylated metabolites was followed using UHPLC-MS/MS quantification with electrospray ionization in positive mode, as described in online supplementary material 2.
(§2) GraphPad Prism, version 9.0.1, was used for fitting of IC50 curves (inhibitor vs. normalized response, variable slope).

[3] = molecular target: T1, CYP2C9; assay: in vitro; details: both, microsomes, pH 7.4; remark: listed apart in the source
Description: as §1, §2

[4] = molecular target: T1, CYP2C9; assay: CYP inhibition assay in pooled HLM, specific substrate tolbutamide
Description: as §1, §2

[5] = molecular target: T2, CYP3A4 (Homo sapiens, UniProt P08684); details: read-out: Literature IC50 in pooled HLM; substrate testosterone; ref PMID 32587099; cited from earlier work
[6] = molecular target: T1, CYP2C9; details: read-out: Literature Ki in pooled HLM; substrate warfarin; ref PMID 21356216; cited from earlier work
[7] = molecular target: T2, CYP3A4; assay: CYP inhibition assay in pooled HLM, specific substrate testosterone
Description: as §1, §2

T1 sequence (P11712 whole entry): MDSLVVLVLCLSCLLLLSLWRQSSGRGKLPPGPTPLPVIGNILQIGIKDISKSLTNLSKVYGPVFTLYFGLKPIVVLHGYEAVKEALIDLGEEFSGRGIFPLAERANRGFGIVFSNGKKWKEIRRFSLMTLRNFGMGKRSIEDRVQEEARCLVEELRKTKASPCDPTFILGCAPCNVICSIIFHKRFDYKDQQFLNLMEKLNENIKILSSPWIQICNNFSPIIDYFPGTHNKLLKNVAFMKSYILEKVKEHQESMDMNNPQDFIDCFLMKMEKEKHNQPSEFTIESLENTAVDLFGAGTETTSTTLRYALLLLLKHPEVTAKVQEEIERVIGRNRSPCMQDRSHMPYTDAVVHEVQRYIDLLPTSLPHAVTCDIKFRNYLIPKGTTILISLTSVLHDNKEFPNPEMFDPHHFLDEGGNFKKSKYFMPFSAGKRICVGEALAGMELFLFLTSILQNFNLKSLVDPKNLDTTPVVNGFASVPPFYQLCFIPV
T2 sequence (P08684 2-503 limits assumed): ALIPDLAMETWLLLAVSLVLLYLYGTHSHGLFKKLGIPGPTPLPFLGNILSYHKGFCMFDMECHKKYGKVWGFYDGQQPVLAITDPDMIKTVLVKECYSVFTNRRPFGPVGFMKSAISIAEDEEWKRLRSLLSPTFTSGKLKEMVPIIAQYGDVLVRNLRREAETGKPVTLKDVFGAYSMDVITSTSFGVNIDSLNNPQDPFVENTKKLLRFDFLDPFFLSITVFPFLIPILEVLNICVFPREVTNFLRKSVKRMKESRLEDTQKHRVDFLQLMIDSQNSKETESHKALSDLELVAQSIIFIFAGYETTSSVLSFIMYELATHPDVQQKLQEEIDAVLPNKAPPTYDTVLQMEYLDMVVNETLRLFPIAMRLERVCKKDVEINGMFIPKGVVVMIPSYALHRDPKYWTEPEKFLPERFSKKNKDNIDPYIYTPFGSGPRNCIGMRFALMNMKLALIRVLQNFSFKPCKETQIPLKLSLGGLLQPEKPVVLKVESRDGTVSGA

Structure (SMILES) | fraction unbound [1] | IC50 at 15 min [2] [µM] | IC50 at 15 min [3] [µM] | IC50 [4] [µM] | IC50 [5] [µM] | Ki [6] [µM] | IC50 [7] [µM]
C=C(C)[C@@H]1CCC(C)=C[C@H]1c1c(O)cc(CCCCC)cc1O [CBD (pure), cannabidiol] | 0.12 | 47 | > 100 | – | – | – | –
CCCCCc1cc(O)c2c(c1)OC(C)(C)[C@@H]1CCC(C)=C[C@@H]21 [THC (pure), Δ9-tetrahydrocannabinol] | 0.05 | 6.9 | 73.3 | 0.081 | 26.1 ± 6.78 | 1.5 | 23.6
